Data published in patent US20130115256A1, “METHODS FOR TREATING OR PREVENTING VASCULAR GRAFT FAILURE” (priority 2010, published 2013).

What was measured:
MK2 = target: T1, MK2 (Homo sapiens, UniProt P49137); experiment: MK2 radiometric kinase assay; assay type: biochemical
T1 construct: purchased Millipore (IC50 Profiler Express / KinaseProfiler service)
Text: A commercial radiometric assay service was used to test the specificity and potency of MMI-0100 ([…]; SEQ ID NO: 1) by measuring its half maximal inhibitory concentrations (IC50). This quantitative assay measures how much MK2 inhibitor (MMI-0100; […] (SEQ ID NO: 1)) is needed to inhibit 50% of a given biological process or component of a process (i.e., an enzyme, cell, or cell receptor). Specifically, in these assays, a positively charged substrate is phosphorylated with a radiolabeled phosphate group from an ATP if the kinase is not inhibited by an inhibitor peptide. The positively charged substrate then is attracted to a negatively charged filter membrane, quantified with a scintillation counter, and compared to a 100% activity control. ATP concentrations within 15 μM of the apparent Km for ATP were chosen since an ATP concentration near the Km may allow for the kinases to have the same relative amount of phosphorylation activity. […]
For the MK2 radiometric assay, 5-10 mU of MK2 was incubated with 50 mM Na b-glycerophosphate pH 7.5, 0.1 mM EGTA, 30 μM KKLNRTLSVA (SEQ ID NO: 34; a substrate peptide for MK2), 10 mM MgAcetate, and 10 μM of [y-^33P-ATP] in a final reaction volume of 25 μl. […] The washed P30 filtermat was dried and its radioactivity was measured by scintillation counter.
IC50 values for inhibitor peptides were determined using Millipore's IC50 Profiler Express service. […]

[1] = tested on: human endothelial cell (EC; HAEC); experiment: MTS cell proliferation assay, human endothelial cells; assay type: cell-based
Experimental: The CellTiter 96® AQueous Non-Radioactive Cell Proliferation Assay (Promega) was used to assess drug effects on cell proliferation according to the manufacturer's instructions. Briefly, HAECs and HASMCs from early passages were grown to 80-90% confluence in 25 cm^2 tissue culture flasks in a 37° C./5% CO2 incubator prior to harvest. 200 μl of each type of cell suspension (at 20,000 cells/cm^2) was seeded onto separate 96-well plates to yield an approximate 60% confluence per well. Cells were allowed to adhere to the plate surface overnight, followed by addition of 20 ng/ml of TNF-α to stimulate production of inflammatory agents. After a 4-6 hour incubation period, MMI-0100 peptide drug ([…]; SEQ ID NO: 1) was added and cells incubated for another 20-24 hours. Each well was then supplemented with 100 μl of fresh medium and 200 μl of CellTiter 96® AQueous One Solution Reagent and incubated for an additional 1.5-2 hours prior to measuring absorbance of each well at 490 nm with a SoftMax®-equipped plate reader.
In order to determine the effect of pharmacological doses of MMI-0100 ([…]; SEQ ID NO: 1) on human endothelial cell (EC) and smooth muscle cell (SMC) proliferation, human EC and SMC cultures were treated with three concentrations (0.25 mM, 0.5 mM, and 1 mM) of MMI-0100 ([…] (SEQ ID NO: 1)) following pre-treatment with TNF-α.

THP-1 cells = experiment: TNF-α and IL-1β production in PMA/LPS-treated THP-1 cells (ELISA); assay type: cell-based, human
Experimental: The ability of MMI-0100 ([…]; SEQ ID NO: 1) to inhibit the production of inflammatory cytokines (TNF-α and IL-1β) in vitro was examined using THP-1 cells. Briefly, THP-1 cells were activated with PMA for 24 hours, and treated subsequently with 10 μg of LPS. The amount of inflammatory cytokines (TNF-α and IL-1β, pg/ml) produced in the medium in the presence or absence of increasing concentrations (1 μM, 3 μM, 10 μM, and 30 μM) of MMI-0100 ([…]; SEQ ID NO: 1) was determined by cytokine specific enzyme-linked immunosorbent assay (ELISA). Analysis of inflammatory cytokines (TNF-α and IL-1β) was performed with cytokine-specific ELISA kit (PeproTech, Inc., Rocky Hill, N.J.). The cytokine-specific ELISA employs highly-purified anti-cytokine antibodies (capture antibodies) that are noncovalently adsorbed (“coated”) onto plastic microwell plates. After washings, the immobilized antibodies capture specifically soluble cytokine proteins present in samples applied to the plate. After washing away unbound material, the captured cytokine proteins are detected by biotin-conjugated anti-cytokine antibodies (detection antibodies) followed by an enzyme-labeled avidin or streptavidin reporter. Following addition of a chromogenic (color-developing) substrate-containing solution, the level of colored product generated by the bound, enzyme-linked, detection reagents can be measured spectrophotometrically using an ELISA-plate reader at an appropriate optical density.
In order to prepare plates for ELISA, capture antibodies (anti-TNF-α or anti-IL-1β antibodies) were diluted with PBS to a concentration of 1 μg/ml. 100 μl of each diluted antibody was added immediately to each well of the ELISA plate. […]
The standard was diluted from 2 ng/ml to zero in diluent, and 100 μl of the standard or sample was added immediately to each well in triplicate and incubated at room temperature for at least 2 hours. […] The level of colored product generated by the bound, enzyme-linked, detection reagents was measured spectrophotometrically using an ELISA-plate reader at an appropriate optical density.

T1 sequence (P49137 whole entry, species assumed): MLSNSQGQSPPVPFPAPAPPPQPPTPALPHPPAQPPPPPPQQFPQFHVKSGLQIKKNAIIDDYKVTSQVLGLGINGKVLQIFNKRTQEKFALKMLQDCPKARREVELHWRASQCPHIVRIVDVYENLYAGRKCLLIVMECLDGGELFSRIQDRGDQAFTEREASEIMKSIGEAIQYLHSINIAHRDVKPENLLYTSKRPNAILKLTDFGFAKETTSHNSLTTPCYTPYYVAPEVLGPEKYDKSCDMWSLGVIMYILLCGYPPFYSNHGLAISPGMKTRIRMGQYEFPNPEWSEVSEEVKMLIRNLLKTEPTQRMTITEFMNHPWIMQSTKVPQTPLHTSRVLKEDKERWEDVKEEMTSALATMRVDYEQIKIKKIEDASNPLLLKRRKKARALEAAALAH

YARAAARQARAKALARQLGVAA [MMI-0100]
Percent Activity, MK2 (MK2; MMI-0100 100 μM, remaining kinase activity): <5% | inhibition of MK2 activity (MK2; concentration used for specificity profiling (Table 2, 100 μM)): > 95% | EC proliferation compared to control (20 ng/ml TNF-α alone) ([1]; 0.25 mM MMI-0100): slightly increased | increase in EC proliferation compared to control (20 ng/ml TNF-α alone) ([1]; 0.5 mM MMI-0100): 30% | increase in EC proliferation compared to control (20 ng/ml TNF-α alone) ([1]; 1 mM MMI-0100): 11% | EC morphology, phase contrast images ([1]; 24 hours treatment): no obvious morphological changes | IL-1β level in the medium (THP-1 cells; 30 μM MMI-0100, PMA then LPS (stimulated control about 450 pg/ml)): about 100 pg/ml | TNF-α level in the medium (THP-1 cells; 30 μM MMI-0100, PMA then LPS (stimulated control about 1000 pg/ml)): about 300 pg/ml | production of pro-inflammatory cytokines (TNF-α and IL-1β) (THP-1 cells; 1, 3, 10, 30 μM MMI-0100): dose-dependent manner
